Measured values reported in publication PMC7496091, “Small‐Molecule Inhibitors Targeting Sterol 14α‐Demethylase (CYP51): Synthesis, Molecular Modelling and Evaluation Against Candida albicans” (Chemmedchem, 2020).
Converted amounts (≈) assume the structure as drawn. Where two headings read alike, the source gives them in different places.

Columns and labels:
C. albicans CA14 = test: MIC, CLSI M27-S4 broth dilution, strain CA14; assay type: cell-based, Candida albicans; conditions: 48 hours
Experimental: Susceptibility testing of C. albicans strains. […] Stock solutions of each agent were prepared in DMSO. […] The final testing concentrations for all compounds ranged from 0.03–16 μg mL^−1.

CaCYP51 [1] = molecular target: T1, CaCYP51 (Candida albicans, UniProt P10613); test: biochemical; assay type: binding
T1 construct: made in house; host or cells: Escherichia coli
T1 sequence (P10613 whole entry): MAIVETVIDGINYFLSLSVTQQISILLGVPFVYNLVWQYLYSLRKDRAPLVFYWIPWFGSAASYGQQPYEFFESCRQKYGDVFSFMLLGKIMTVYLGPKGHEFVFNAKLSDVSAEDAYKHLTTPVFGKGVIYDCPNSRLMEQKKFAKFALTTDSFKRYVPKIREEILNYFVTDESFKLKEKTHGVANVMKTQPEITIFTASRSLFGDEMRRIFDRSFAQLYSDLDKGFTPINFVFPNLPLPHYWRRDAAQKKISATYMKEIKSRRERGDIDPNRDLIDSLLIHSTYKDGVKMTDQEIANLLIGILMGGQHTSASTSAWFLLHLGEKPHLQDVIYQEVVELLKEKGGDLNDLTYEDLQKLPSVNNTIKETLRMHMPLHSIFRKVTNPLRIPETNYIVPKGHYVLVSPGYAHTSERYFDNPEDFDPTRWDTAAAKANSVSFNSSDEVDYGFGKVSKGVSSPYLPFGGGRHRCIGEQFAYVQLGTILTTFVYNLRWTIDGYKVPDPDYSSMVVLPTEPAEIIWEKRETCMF
Text: […]. There were no signs of compound insolubility (visible or rising background absorbance) during the ligand titrations. […] […].
The rearranged Morrison equation34 gave the best fit to the ligand saturation curves against CaCYP51 (Figure 5) indicating the selected compounds bound tightly to the purified CaCYP51 protein in free solution. Likewise the rearranged Morrison equation34 gave the best fit for binding 5 d and 5 f to Δ60HsCYP51, thus indicating tight binding in free solution (Figure 5). […].
Recombinant CYP51 protein studies. […] All azole ligand binding determinations were performed in triplicate, except the binding of compound 12 c with Δ60HsCYP51 which was performed six times. CYP51 protein samples were diluted with 0.1 M Tris⋅HCl (pH 8.1) and 25 % (w/v) glycerol to the required concentration.
(§1) Dissociation constant (K d). The K d for each CYP51‐azole complex was determined by non‐linear regression (Levenberg‐Marquardt algorithm) using a rearrangement of the Morrison equation for tight ligand binding.34 Where ligand binding was weaker, the Michaelis‐Menten equation was used to fit the data (Figure S5). K d values were determined for each of the three replicate titrations per azole compound and then mean K d values and standard deviations calculated.

CaCYP51 [2] = molecular target: T1, CaCYP51; test: biochemical
Experimental: […]. […] […]. CYP51 reconstitution assays. IC50 values were determined for individual azole compounds18, 30 using lanosterol as substrate. Azoles were introduced using 2.5 μL of stock solutions in DMSO. CaCYP51 assays contained 1 μM CaCYP51 and 2 μM Homo sapiens cytochrome P450 reductase (HsCPR – UniProtKB accession number P16435) and were incubated for 20 min at 37 °C. HsCYP51 assays contained 0.25 μM Δ60HsCYP51 and 1 μM HsCPR and were incubated for 10 min at 37 °C. Each IC50 experiment was performed in duplicate.

C. albicans SC5314 = test: MIC, CLSI M27-S4 broth dilution, strain SC5314; assay type: cell-based, Candida albicans; conditions: 48 hours
Experimental: The susceptibilities of the SC5314 and CA14C. albicans (azole sensitive) strains to all novel azole derivatives (5, 7 and 12) were determined (Table 3) using the standardized CLSI M27‐S4 broth dilution method.28
Susceptibility testing of C. albicans strains. […] Stock solutions of each agent were prepared in DMSO. Further dilutions were made in RPMI‐1640, and the final concentration of DMSO was 1 % (v/v). The final testing concentrations for all compounds ranged from 0.03–16 μg mL^−1.

Δ60HsCYP51 [3] = molecular target: T2, Δ60HsCYP51 (Homo sapiens, UniProt Q16850); test: Azole ligand binding titration (type II difference spectra, Kd), Δ60HsCYP51
T2 sequence (Q16850 61-509, stated change not applied): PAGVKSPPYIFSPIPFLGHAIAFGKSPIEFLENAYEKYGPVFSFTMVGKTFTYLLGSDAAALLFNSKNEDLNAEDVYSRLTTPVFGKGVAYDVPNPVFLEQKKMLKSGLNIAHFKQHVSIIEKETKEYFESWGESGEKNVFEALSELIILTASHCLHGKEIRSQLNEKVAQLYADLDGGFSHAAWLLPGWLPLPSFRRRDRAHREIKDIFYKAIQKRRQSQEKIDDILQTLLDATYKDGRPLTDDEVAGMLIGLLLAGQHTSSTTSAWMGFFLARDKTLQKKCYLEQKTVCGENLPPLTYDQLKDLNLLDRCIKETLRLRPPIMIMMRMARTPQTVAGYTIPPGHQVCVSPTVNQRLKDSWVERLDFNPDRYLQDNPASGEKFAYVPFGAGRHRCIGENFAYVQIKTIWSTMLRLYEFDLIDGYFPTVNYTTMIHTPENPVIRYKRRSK
T2 sequence (P16435 2-677, stated change not applied, further chain): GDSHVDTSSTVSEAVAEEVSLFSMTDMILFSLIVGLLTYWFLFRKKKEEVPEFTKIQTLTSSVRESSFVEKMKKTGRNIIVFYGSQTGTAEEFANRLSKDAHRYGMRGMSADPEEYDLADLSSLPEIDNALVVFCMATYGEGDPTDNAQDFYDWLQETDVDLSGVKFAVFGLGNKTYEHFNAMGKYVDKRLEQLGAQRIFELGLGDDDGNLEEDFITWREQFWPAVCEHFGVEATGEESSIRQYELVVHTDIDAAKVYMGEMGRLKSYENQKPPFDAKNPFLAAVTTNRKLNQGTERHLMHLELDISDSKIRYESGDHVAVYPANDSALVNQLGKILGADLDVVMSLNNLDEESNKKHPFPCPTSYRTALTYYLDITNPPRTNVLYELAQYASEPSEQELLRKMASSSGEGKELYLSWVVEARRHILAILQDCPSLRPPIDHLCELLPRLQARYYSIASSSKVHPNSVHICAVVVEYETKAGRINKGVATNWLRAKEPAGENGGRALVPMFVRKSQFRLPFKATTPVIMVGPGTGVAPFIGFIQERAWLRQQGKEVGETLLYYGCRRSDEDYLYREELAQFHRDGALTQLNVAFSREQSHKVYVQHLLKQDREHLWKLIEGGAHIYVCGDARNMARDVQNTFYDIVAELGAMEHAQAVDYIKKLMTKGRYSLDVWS
Experimental: Recombinant CYP51 protein studies.
as §1

Δ60HsCYP51 [4] = molecular target: T2, Δ60HsCYP51; test: CYP51 reconstitution assay (IC50), Δ60HsCYP51; assay type: biochemical
Experimental: CYP51 reconstitution assays. […] Azoles were introduced using 2.5 μL of stock solutions in DMSO. […] Each IC50 experiment was performed in duplicate.

[5] = Candida albicans, CA14, 80 % reduction in turbidity
[6] = Candida albicans, CA14, value in brackets
[7] = 3 μM native CaCYP51, mean of three replicates ± SD, read-out: K d CaCYP51
[8] = 1 μM CaCYP51, lanosterol as substrate, curve-fitted, read-out: CaCYP51 IC50
[9] = Candida albicans, SC5314, 80 % reduction in turbidity
[10] = Candida albicans, SC5314, value in brackets

Structure (SMILES)	MIC (C. albicans CA14; [5]) [µg/mL]	MIC (C. albicans CA14; [6]) [µM]	Kd (CaCYP51 [1]; [7]) [nM]	melting point [°C]	IC50 (CaCYP51 [2]; [8]) [nM]	MIC (C. albicans SC5314; [9]) [µg/mL]	MIC (C. albicans SC5314; [10]) [µM]	also measured
O=C(NCc1ccc(Cl)cc1)C(Cn1ccnc1)c1ccccc1 (centres unmarked) [Compound 5 c, N‐(4‐Chlorobenzyl)‐3‐(1H‐imidazol‐1‐yl)‐2‐phenylpropanamide]			60 ± 4		1010			MIC CA14 (C. albicans CA14; 80 % reduction in turbidity): 4 µg/mL (≈ 11.8 µM); MIC (C. albicans CA14; value in brackets): 11.8 µM; MIC SC5314 (C. albicans SC5314; 80 % reduction in turbidity): 8 µg/mL (≈ 23.5 µM); MIC (C. albicans SC5314; value in brackets): 23.5 µM
O=C(NCc1ccc(Cl)cc1Cl)C(Cn1ccnc1)c1ccccc1 (centres unmarked) [Compound 5 e, N‐(2,4‐Dichlorobenzyl)‐3‐(1H‐imidazol‐1‐yl)‐2‐phenylpropanamide]	1	2.67	83 ± 26	55 to 57	990	1	2.67	
Cc1ccc(CNC(=O)C(Cn2ccnc2)c2ccccc2)cc1 (centres unmarked) [Compound 5 g, 3‐(1H‐Imidazol‐1‐yl)‐N‐(4‐methylbenzyl)‐2‐phenylpropanamide]	8	25.1	144 ± 47	134 to 136	2450	8	25.1	
COc1ccc(CNC(=O)C(Cn2ccnc2)c2ccccc2)cc1OC (centres unmarked) [Compound 5 j, N‐(3,4‐Dimethoxybenzyl)‐3‐(1H‐imidazol‐1‐yl)‐2‐phenylpropanamide]	> 16	> 43.8			6150	> 16	> 43.8	
O=C(NCc1ccc(Cl)cc1)C(Cn1cncn1)c1ccccc1 (centres unmarked) [Compound 5 k, N‐(4‐Chlorobenzyl)‐2‐phenyl‐3‐(1H‐1,2,4‐triazol‐1‐yl)propanamide]			167 ± 17		4320			MIC CA14 (C. albicans CA14; 80 % reduction in turbidity): 8 µg/mL (≈ 23.5 µM); MIC (C. albicans CA14; value in brackets): 23.5 µM; MIC SC5314 (C. albicans SC5314; 80 % reduction in turbidity): 8 µg/mL (≈ 23.5 µM); MIC (C. albicans SC5314; value in brackets): 23.5 µM
C=C(C(=O)NCc1ccc(Cl)cc1)c1ccc(Cl)cc1 [Compound 6 d, N‐(4‐Chlorobenzyl)‐2‐(4‐chlorophenyl)acrylamide]				108 to 110				
C=C(C(=O)NCc1ccc(Cl)cc1Cl)c1ccccc1 [Compound 6 e, N‐(2,4‐Dichlorobenzyl)‐2‐phenylacrylamide]				66 to 68				
C=C(C(=O)NCc1ccc(Cl)cc1Cl)c1ccc(Cl)cc1 [Compound 6 f, 2‐(4‐Chlorophenyl)‐N‐(2,4‐dichlorobenzyl)acrylamide]				104 to 106				
C=C(C(=O)NCc1ccc(C)cc1)c1ccccc1 [Compound 6 g, N‐(4‐Methylbenzyl)‐2‐phenylacrylamide]				92 to 94				
C=C(C(=O)NCc1ccc(OC)cc1)c1ccccc1 [Compound 6 i, N‐(4‐Methoxybenzyl)‐2‐phenylacrylamide]				100 to 102				
C=C(C(=O)NCc1ccc(NC(=O)OC(C)(C)C)cc1)c1ccccc1 [Compound 6 l, tert‐Butyl (4‐((2‐phenylacrylamido)methyl)phenyl)carbamate]				136 to 138				
Nc1ccc(CNC(=O)C(Cn2cncn2)c2ccccc2)cc1.O=C(O)C(F)(F)F (centres unmarked) [Compound 7]					1960			MIC CA14 (C. albicans CA14; 80 % reduction in turbidity): > 16 µg/mL; MIC (C. albicans CA14; value in brackets): > 36.8 µM; MIC SC5314 (C. albicans SC5314; 80 % reduction in turbidity): > 16 µg/mL; MIC (C. albicans SC5314; value in brackets): > 36.8 µM
COc1ccc(S(=O)(=O)Nc2ccc(CNC(=O)C(Cn3cncn3)c3ccccc3)cc2)cc1 (centres unmarked) [Compound 12 d, 2‐Phenyl‐N‐(4‐(4‐methoxyphenylsulfonamido)benzyl)‐3‐(1H‐1,2,4‐triazol‐1‐yl)propanamide]	4	8.14	110 ± 22		790	8	16.3	
C=C(C(=O)NCc1ccc(NS(=O)(=O)c2ccc(F)cc2)cc1)c1ccccc1 [Compound 13 b, N‐(4‐((4‐Fluorophenyl)sulfonamido)benzyl)‐2‐phenylacrylamide]				136 to 138				
OC(Cn1cncn1)(Cn1cncn1)c1ccc(F)cc1F [fluconazole, reference compound]	0.125	0.41				0.125	0.41	Type of difference binding spectra with Δ60HsCYP51 (Δ60HsCYP51 [3]; titration with Δ60HsCYP51): type II difference binding spectra; Kd (CaCYP51 [1]): 41 ± 13 nM; IC50 (CaCYP51 [2]): 310 nM; Ki (CaCYP51 [2]): 30 nM
CC[C@@H]([C@H](C)O)n1ncn(-c2ccc(N3CCN(c4ccc(OC[C@@H]5CO[C@@](Cn6cncn6)(c6ccc(F)cc6F)C5)cc4)CC3)cc2)c1=O [posaconazole, reference compound]			43 ± 11					Kd (Δ60HsCYP51 [3]): 204 ± 63 nM; IC50 (Δ60HsCYP51 [4]): 123000 nM
C[C@@H](c1ncncc1F)[C@](O)(Cn1cncn1)c1ccc(F)cc1F [voriconazole, reference compound]								IC50 (Δ60HsCYP51 [4]): 78000 nM

Second part, led by results:

MIC (C. albicans CA14; [5]) [µg/mL]	MIC (C. albicans CA14; [6]) [µM]	Kd (CaCYP51 [1]; [7]) [nM]	melting point [°C]	IC50 (CaCYP51 [2]; [8]) [nM]	MIC (C. albicans SC5314; [9]) [µg/mL]	MIC (C. albicans SC5314; [10]) [µM]	Structure (SMILES)	also measured
4	12.4	87 ± 27	100 to 102	1410	8	24.7	O=C(NCc1ccc(F)cc1)C(Cn1ccnc1)c1ccccc1 (centres unmarked) [Compound 5 b, N‐(4‐Fluorobenzyl)‐3‐(1H‐imidazol‐1‐yl)‐2‐phenylpropanamide]	
4	10.7	85 ± 19		2210	4	10.7	O=C(NCc1ccc(C(F)(F)F)cc1)C(Cn1ccnc1)c1ccccc1 (centres unmarked) [Compound 5 h, 3‐(1H‐Imidazol‐1‐yl)‐2‐phenyl‐N‐(4‐(trifluoromethyl)benzyl)propanamide]	
8	23.9	55 ± 10	102 to 104	910	8	23.9	COc1ccc(CNC(=O)C(Cn2ccnc2)c2ccccc2)cc1 (centres unmarked) [Compound 5 i, 3‐(1H‐Imidazol‐1‐yl)‐N‐(4‐methoxybenzyl)‐2‐phenylpropanamide]	
			108 to 110				C=C(C(=O)NCc1ccc(F)cc1)c1ccccc1 [Compound 6 b, N‐(4‐Fluorobenzyl)‐2‐phenylacrylamide]	
			88 to 90				C=C(C(=O)NCc1ccc(C(F)(F)F)cc1)c1ccccc1 [Compound 6 h, 2‐Phenyl‐N‐(4‐(trifluoromethyl)benzyl)acrylamide]	
			102 to 104				C=C(C(=O)NCc1ccc(OC)c(OC)c1)c1ccccc1 [Compound 6 j, N‐(3,4‐Dimethoxybenzyl)‐2‐phenylacrylamide]	
4	8.67	115 ± 16	96 to 98	540	4	8.67	O=C(NCc1ccc(NS(=O)(=O)c2ccccc2)cc1)C(Cn1cncn1)c1ccccc1 (centres unmarked) [Compound 12 a, 2‐Phenyl‐N‐(4‐(phenylsulfonamido)benzyl)‐3‐(1H‐1,2,4‐triazol‐1‐yl)propanamide]	
		55 ± 27		200			O=C(NCc1ccc(NS(=O)(=O)c2ccc(F)cc2)cc1)C(Cn1cncn1)c1ccccc1 (centres unmarked) [Compound 12 b, N‐(4‐((4‐Fluorophenyl)sulfonamido)benzyl)‐2‐phenyl‐3‐(1H‐1,2,4‐triazol‐1‐yl) propanamide]	MIC CA14 (C. albicans CA14; 80 % reduction in turbidity): 2 µg/mL (≈ 4.17 µM); MIC (C. albicans CA14; value in brackets): 4.17 µM; MIC SC5314 (C. albicans SC5314; 80 % reduction in turbidity): 4 µg/mL (≈ 8.34 µM); MIC (C. albicans SC5314; value in brackets): 8.34 µM
			98 to 100				C=C(C(=O)NCc1ccc(NS(=O)(=O)c2ccc(OC)cc2)cc1)c1ccccc1 [Compound 13 d, N‐(4‐((4‐Methoxyphenyl)sulfonamido)benzyl)‐2‐phenylacrylamide]	
